Data on two substances can be found in patent US11185068B2, “Diluent for sperm and method for preserving sperm using same” (Livestock Improvement Association of Japan, Inc., priority 2016, dated 2021).

In the series the test system is thawed bovine sperm.

Method: Semen collected from a breeding bull kept at Livestock Improvement Association of Japan was diluted with primary and secondary diluents prepared in the same manner as in Example 1 except that 30 g of fructo-oligosaccharide or 30 g of isomalto-oligosaccharide was added. The semen was diluted so that the final concentration of glycerin was 7%, thereby obtaining diluted sperm solutions. As a control group with soybean lecithin and devoid of fructo-oligosaccharide and isomalto-oligosaccharide, semen was diluted with the diluent described in Example 1 of Patent Document 4, the diluent having a final glycerin concentration of 7%. As a control group with egg yolk and devoid of fructo-oligosaccharide and isomalto-oligosaccharide, semen was diluted with the diluent described in Patent Document 1, produced and sold by Livestock Improvement Association of Japan for preparation of frozen semen, the diluent having a final glycerin concentration of 6.5%. Semen was diluted with each of these diluents so that the diluted semen contained 80 million sperm per ml. The second diluent was added to the primarily diluted semen at a ratio of 1:1 so that the semen contained 40 million sperm per ml. Straws for artificial insemination were then prepared by conventional methods. Cryopreservation was performed using liquid nitrogen by conventional methods. […]

Regarding fructo-oligosaccharide, the “adverse influence on the oocyte penetration ability of sperm and the development ability of fertilized embryo” value is recorded as “substantially no adverse influence”. The result for isomalto-oligosaccharide reads “substantially no adverse influence”.
